Assay results: the SangsterLogP compilation

experiment: method code SF, from DOI: 10.1021/jf00121a034

SMILES	logP
CON(C)C(=O)Nc1ccc(N)cc1	-0.16
CN(C)C(=O)Nc1ccc(C(=O)c2ccccc2)cc1	2.59
CCCCCCCCCCCCOc1ccc(NC(=O)N(C)C)cc1	6.93
CN(C)C(=O)Nc1ccc(C2CCCCC2)cc1	3.83
CON(C)C(=O)Nc1ccc(CCCc2ccccc2)cc1	4.67
CON(C)C(=O)Nc1cccc([N+](=O)[O-])c1	1.64
CON(C)C(=O)Nc1ccc(OCCc2cccc3ccccc23)cc1	4.81
CON(C)C(=O)Nc1ccc(CCCc2ccc(-c3ccccc3)cc2)cc1	6.54
CON(C)C(=O)Nc1ccc(OCCCCOc2ccccc2)cc1	3.86
CON(C)C(=O)Nc1ccc(CCCc2ccc(Cl)cc2)cc1	5.35
CON(C)C(=O)Nc1ccc(OCC(=O)C23CC4CC(C2)C4C3)c(Cl)c1 (configuration not stated)	4.48
CCOC(=O)c1ccc(NC(=O)N(C)OC)cc1	2.24
CON(C)C(=O)Nc1cccc(O)c1	0.82
CON(C)C(=O)Nc1ccc([N+](=O)[O-])cc1	1.74
CON(C)C(=O)Nc1ccc(OCCc2ccc(C)cc2)cc1	3.81
CN(C)C(=O)Nc1cccc(N)c1	-0.1
CON(C)C(=O)Nc1ccc(C2CCCCC2)cc1	4.08
CON(C)C(=O)Nc1cccc(C(C)(C)C)c1	3.21
CC(=O)c1cccc(NC(=O)N(C)C)c1	0.95
CON(C)C(=O)Nc1ccccc1	1.29
CON(C)C(=O)Nc1ccc(C=C(C#N)C#N)cc1	2.19

SMILES	logP
CON(C)C(=O)Nc1ccc(C(C)=O)cc1	1.22
CCCCc1cccc(NC(=O)N(C)C)c1	3.23
CON(C)C(=O)Nc1cccc(CO)c1	0.62
CON(C)C(=O)Nc1ccc(OCCC2CCCCC2)cc1	4.46
CC(C)c1ccc(NC(=O)N(C)C)cc1	2.87
CON(C)C(=O)Nc1ccc(C(=O)c2ccccc2)cc1	2.86
CN(C)C(=O)Nc1cccc(OCCc2ccccc2)c1	3.39
CN(C)C(=O)Nc1cccc(O)c1	0.51
CON(C)C(=O)Nc1cccc(F)c1	1.68
CON(C)C(=O)Nc1ccc(CCCCc2ccccc2)cc1	5.15
CON(C)C(=O)Nc1ccc(OCC(=O)C23CC4CC(CC(C4)C2)C3)cc1	3.53
CON(C)C(=O)Nc1cccc(OCC(=O)C23CC4CC(CC(C4)C2)C3)c1	3.79
CON(C)C(=O)Nc1ccc(OCc2ccccc2)cc1	3.11
CCNc1ccc(NC(=O)N(C)OC)cc1	0.83
CON(C)C(=O)Nc1cccc(C(F)(F)F)c1	2.64
CON(C)C(=O)Nc1ccc(C(C)C)cc1	2.95
CN(C)C(=O)Nc1cccc([N+](=O)[O-])c1	1.46
CON(C)C(=O)Nc1ccc(NS(C)(=O)=O)cc1	0.14
CON(C)C(=O)Nc1cccc(OCCCCOc2ccccc2)c1	3.86
CON(C)C(=O)Nc1ccc(OC(C)CC2CCCCC2)cc1 (configuration not stated)	4.51
CON(C)C(=O)Nc1ccc(F)cc1	1.46
